Test results reported in patent US9296741B2, “Bromodomain inhibitors” (priority 2012, dated 2016).
Read-outs that look alike come from different tables or passages of the source.

Key:
[1] = Mouse liver microsome stability assay; type: in vitro ADME; settings: microsomes, pH 7.4; for half-life at 0.5 μM: male, CD1, mouse
[2] = tested on: LPS induced IL-6 production; test: LPS (lipopolysaccharide) induced IL-6 production mouse assay; type: in vivo; settings: 3 mg/kg oral, 1 h before LPS, serum IL-6 2 h after LPS; for inhibition in vivo at 3 mg/kg: Mus musculus, read-out: Inhibition of LPS induced IL-6 production in Mice, % inhibition at 3 mg/kg
[3] = tested on: breast cancer cell line MX-1; test: MX-1 cell line proliferation assay; type: cell-based, human; settings: MX-1 cells, 3-day proliferation, Cell Titer Glo, read-out: Cellular proliferation: EC50
[4] = Rat liver microsome stability assay; type: in vitro ADME; settings: for half-life at 0.5 μM: rat liver microsomes (male Sprague-Dawley), 0.5 μM test compound, 0.25 mg/mL microsomal protein, pH 7.4, 37° C., read-out: Stability in rat liver microsomes (t1/2 in minutes)
[5] = target: human BRD4 second bromodomain (BDII_E352-M457) (Homo sapiens (Human), UniProt O60885); test: TR-FRET bromodomain binding assay, BRD4 second bromodomain
[6] = target: human BRD4 first bromodomain (BDI_K57-E168) (Homo sapiens (Human), UniProt O60885); test: TR-FRET bromodomain binding assay, BRD4 first bromodomain
[7] = Human liver microsome stability assay; type: in vitro ADME; settings: human, microsomes, pH 7.4; for half-life at 0.5 μM: both sexes

| half-life at 0.5 μM [1] [min] | EC50 ([3]; Homo sapiens, MX1, 72 h) [nM] | half-life at 0.5 μM [4] [min] | Ki [5] [nM] | Ki [6] [nM] | half-life at 0.5 μM [7] [min] | Stability in mouse liver microsomes (t1/2 in minutes) ([1]; mouse) [min] | EC50 [3] [nM] | Stability in rat liver microsomes (t1/2 in minutes) ([4]; rat, microsomes, pH 7.4) [min] | Stability in human liver microsomes (t1/2 in minutes) [7] [min] | SMILES | inhibition in vivo at 3 mg/kg [2] [%] | Inhibition of LPS induced IL-6 production in Mice, % inhibition at 3 mg/kg [2] [%] |
| --- | --- | --- | --- | --- | --- | --- | --- | --- | --- | --- | --- | --- |
| 59 | 62.4 | 107 | 20.7 | 37 | 89 |  |  |  |  | Cn1nc(-c2cc(NS(C)(=O)=O)ccc2Oc2ccc(F)cc2F)c2cc[nH]c2c1=O [Example 159, N-[4-(2,4-difluorophenoxy)-3-(6-methyl-7-oxo-6,7-dihydro-1H-pyrrolo[2,3-d]pyridazin-4-yl)phenyl]methanesulfonamide] | 58 |  |
| 11 | 127 | 41 | 4.6 | 11.1 | 96 |  |  |  |  | Cn1cc(-c2cc(S(C)(=O)=O)ccc2Oc2ccc3ncccc3c2)c2cc[nH]c2c1=O [Example 162, 6-methyl-4-[5-(methylsulfonyl)-2-(quinolin-6-yloxy)phenyl]-1,6-dihydro-7H-pyrrolo[2,3-c]pyridin-7-one] | 41 |  |
| 25 | 27.7 | 82 | 1.3 | 5.4 | 66 |  |  |  |  | CCS(=O)(=O)c1ccc(Oc2ccc(F)cc2F)c(-c2cn(C)c(=O)c3[nH]ccc23)c1 [Example 168, 4-[2-(2,4-difluorophenoxy)-5-(ethylsulfonyl)phenyl]-6-methyl-1,6-dihydro-7H-pyrrolo[2,3-c]pyridin-7-one] | 70 |  |
| 118 | 39.1 | 81 | 10.2 | 6.2 | > 120 |  |  |  |  | Cn1cc(-c2cc(S(C)(=O)=O)ccc2OC2CCOC2)c2cc[nH]c2c1=O (stereo not shown) [Example 205, 6-methyl-4-[5-(methylsulfonyl)-2-(tetrahydrofuran-3-yloxy)phenyl]-1,6-dihydro-7H-pyrrolo[2,3-c]pyridin-7-one] | 48 |  |
| 72 | 6.3 | > 120 | 6.7 | 3.7 | 33 |  |  |  |  | Cn1cc(-c2cc(S(C)(=O)=O)ccc2OCC2(C)CC2)c2cc[nH]c2c1=O [Example 231, 6-methyl-4-{2-[(1-methylcyclopropyl)methoxy]-5-(methylsulfonyl)phenyl}-1,6-dihydro-7H-pyrrolo[2,3-c]pyridin-7-one] | 51 |  |
| 47 | 11.5 | > 120 | 2.8 | 2 | > 120 |  |  |  |  | CCS(=O)(=O)c1ccc(OCC2CC2(F)F)c(-c2cn(C)c(=O)c3[nH]ccc23)c1 (stereo not shown) [Example 240, 4-{2-[(2,2-difluorocyclopropyl)methoxy]-5-(ethylsulfonyl)phenyl}-6-methyl-1,6-dihydro-7H-pyrrolo[2,3-c]pyridin-7-one] | 62 |  |
| 29 | 6.3 | 58 | 1.2 | 1 | 34 |  |  |  |  | CCS(=O)(=O)c1ccc(O[C@H]2CC[C@H](OC)CC2)c(-c2cn(C)c(=O)c3[nH]ccc23)c1 [Example 260, 4-{5-(ethylsulfonyl)-2-[(trans-4-methoxycyclohexyl)oxy]phenyl}-6-methyl-1,6-dihydro-7H-pyrrolo[2,3-c]pyridin-7-one] | 66 |  |

Second part, the compound before the results:

| SMILES | half-life at 0.5 μM [1] [min] | EC50 ([3]; Homo sapiens, MX1, 72 h) [nM] | half-life at 0.5 μM [4] [min] | Ki [5] [nM] | Ki [6] [nM] | half-life at 0.5 μM [7] [min] | Stability in mouse liver microsomes (t1/2 in minutes) ([1]; mouse) [min] | EC50 [3] [nM] | Stability in rat liver microsomes (t1/2 in minutes) ([4]; rat, microsomes, pH 7.4) [min] | Stability in human liver microsomes (t1/2 in minutes) [7] [min] | inhibition in vivo at 3 mg/kg [2] [%] | Inhibition of LPS induced IL-6 production in Mice, % inhibition at 3 mg/kg [2] [%] |
| --- | --- | --- | --- | --- | --- | --- | --- | --- | --- | --- | --- | --- |
| Cn1cc(-c2cc(S(C)(=O)=O)ccc2Oc2ccc(Cl)cc2)c2cc[nH]c2c1=O [Example 154, 4-[2-(4-chlorophenoxy)-5-(methylsulfonyl)phenyl]-6-methyl-1,6-dihydro-7H-pyrrolo[2,3-c]pyridin-7-one] | 18 | 65.5 | 66 | 13.1 | 20.8 | 42 |  |  |  |  | 73 |  |
| Cn1cc(-c2cc(S(C)(=O)=O)ccc2Oc2cccc(N)c2)c2cc[nH]c2c1=O [Example 166, 4-[2-(3-aminophenoxy)-5-(methylsulfonyl)phenyl]-6-methyl-1,6-dihydro-7H-pyrrolo[2,3-c]pyridin-7-one] | 22 | 48.2 | 23 | 3.6 | 10.9 | 85 |  |  |  |  | 44 |  |
| CCS(=O)(=O)c1ccc(OC2CCC3(CC2)OCCO3)c(-c2cn(C)c(=O)c3[nH]ccc23)c1 [Example 197, 4-[2-(1,4-dioxaspiro[4.5]dec-8-yloxy)-5-(ethylsulfonyl)phenyl]-6-methyl-1,6-dihydro-7H-pyrrolo[2,3-c]pyridin-7-one] | 10 | 11.7 | 15 | 0.79 | 1.5 | 16 |  |  |  |  | 59 |  |
| Cn1cc(-c2cc(S(N)(=O)=O)cnc2OCC2CC2)c2cc[nH]c2c1=O [Example 207, 6-(cyclopropylmethoxy)-5-(6-methyl-7-oxo-6,7-dihydro-1H-pyrrolo[2,3-c]pyridin-4-yl)pyridine-3-sulfonamide] | 100 | 25.1 | 78 | 1.8 | 3.1 | 102 |  |  |  |  | 62 |  |
| CCS(=O)(=O)c1ccc(OC2CCC(C)(O)CC2)c(-c2cn(C)c(=O)c3[nH]ccc23)c1 (stereo not drawn) [Example 212, 4-{5-(ethylsulfonyl)-2-[(trans-4-hydroxy-4-methylcyclohexyl)oxy]phenyl}-6-methyl-1,6-dihydro-7H-pyrrolo[2,3-c]pyridin-7-one] |  |  |  | 1.3 | 1.8 |  | 53 | 7.3 | 67 | 69 |  | 47 |
| Cn1cc(-c2cc(S(N)(=O)=O)ccc2NCC2CC2)c2cc[nH]c2c1=O [Example 238, 4-[(cyclopropylmethyl)amino]-3-(6-methyl-7-oxo-6,7-dihydro-1H-pyrrolo[2,3-c]pyridin-4-yl)benzenesulfonamide] | 63 | 3.3 | > 120 | 0.78 | 1.1 | 103 |  |  |  |  | 69 |  |
| Cn1cc(-c2cc(S(N)(=O)=O)cnc2Oc2ccc(F)cc2F)c2cc[nH]c2c1=O [Example 242, 6-(2,4-difluorophenoxy)-5-(6-methyl-7-oxo-6,7-dihydro-1H-pyrrolo[2,3-c]pyridin-4-yl)pyridine-3-sulfonamide] | > 120 | 289 | 86 | 5.8 | 36.5 | > 120 |  |  |  |  | 46 |  |
| CN(C)S(=O)(=O)c1cnc(NCC2CC2)c(-c2cn(C)c(=O)c3[nH]ccc23)c1 [Example 245, 6-[(cyclopropylmethyl)amino]-N,N-dimethyl-5-(6-methyl-7-oxo-6,7-dihydro-1H-pyrrolo[2,3-c]pyridin-4-yl)pyridine-3-sulfonamide] | 12 | 26.9 | 24 | 3.7 | 2.5 | 32 |  |  |  |  | 71 |  |
| CCS(=O)(=O)c1ccc(O[C@H]2CC[C@@H](OC)CC2)c(-c2cn(C)c(=O)c3[nH]ccc23)c1 [Example 248, 4-{5-(ethylsulfonyl)-2-[(cis-4-methoxycyclohexyl)oxy]phenyl}-6-methyl-1,6-dihydro-7H-pyrrolo[2,3-c]pyridin-7-one] | 5 | 26.4 | 16 | 1.3 | 1.9 | 13 |  |  |  |  | 82 |  |
| CCS(=O)(=O)c1ccc(NC2CC2)c(-c2cn(C)c(=O)c3[nH]ccc23)c1 [Example 267, 4-[2-(cyclopropylamino)-5-(ethylsulfonyl)phenyl]-6-methyl-1,6-dihydro-7H-pyrrolo[2,3-c]pyridin-7-one] | > 120 | 43.6 | 18 | 4.2 | 4.4 | 95 |  |  |  |  | 74 |  |
| CN(C)S(=O)(=O)c1ccc(OCC2CC2)c(-c2cn(C)c(=O)c3[nH]ccc23)c1 [Example 273, 4-(cyclopropylmethoxy)-N,N-dimethyl-3-(6-methyl-7-oxo-6,7-dihydro-1H-pyrrolo[2,3-c]pyridin-4-yl)benzenesulfonamide] | 8 | 9 | 12 | 1.3 | 1.2 | 9 |  |  |  |  | 47 |  |
| Cn1cc(-c2cc(S(C)(=O)=O)ccc2Oc2ccc(F)cc2F)c2cc(CO)[nH]c2c1=O [Example 276, 4-[2-(2,4-difluorophenoxy)-5-(methylsulfonyl)phenyl]-2-(hydroxymethyl)-6-methyl-1,6-dihydro-7H-pyrrolo[2,3-c]pyridin-7-one] | 71 | 149 | 82 | 17.1 | 11.4 | > 120 |  |  |  |  | 25 |  |
